Counter-ions that a name gives are not always drawn. Like-named read-outs stand apart in the source and are kept apart here.

Assay in all cases: AK assay 384-well format, Prestwick library screening
The test system of one assay is K. pneumoniae. The assay is classed as cell-based, Klebsiella pneumoniae. Particulars: Klebsiella pneumoniae, 3 h.
The next assay relates to P. aeruginosa. The assay is classed as cell-based, Pseudomonas aeruginosa. The note with it: Pseudomonas aeruginosa, 3 h.
The subject of another assay is E. cloacae. Type of assay: cell-based, Enterobacter cloacae. Particulars: Enterobacter cloacae, 3 h.
Assay [1] has as its system A. baumannii strain 98-37-09. The assay is classed as cell-based, Acinetobacter baumannii. The note with it: Acinetobacter baumannii, 983709, 3 h.
Another assay has as its system E. faecium. The assay is classed as cell-based, Enterococcus faecium. The note with it: Enterococcus faecium, 3 h.
The test system of another assay is E. coli. Type of assay: cell-based, Escherichia coli. Particulars: Escherichia coli, 3 h.
For assay [2], the system named is S. aureus strain USA300-0114. The assay is classed as cell-based, Staphylococcus aureus. The note with it: Staphylococcus aureus, USA300, 3 h.
[3] abbreviates: 50 μM final drug concentration, cutoff for positive-scoring molecules 3-fold increase, read-out: AK-based Prestwick Library Screening Results, K. pneumoniae (fold increase in extracellular AK activity).
Where [4] appears, read: 50 μM final drug concentration, cutoff for positive-scoring molecules 3-fold increase, read-out: AK-based Prestwick Library Screening Results, P. aeruginosa (fold increase in extracellular AK activity).
The mark [5] stands for this setting: 50 μM final drug concentration, cutoff for positive-scoring molecules 3-fold increase, read-out: AK-based Prestwick Library Screening Results, E. cloacae (fold increase in extracellular AK activity).
[6] abbreviates: 50 μM final drug concentration, cutoff for positive-scoring molecules 3-fold increase, read-out: AK-based Prestwick Library Screening Results, A. baumannii (fold increase in extracellular AK activity).
[7] abbreviates: 50 μM final drug concentration, cutoff for positive-scoring molecules 3-fold increase, read-out: AK-based Prestwick Library Screening Results, E. faecium (fold increase in extracellular AK activity).
Where [8] appears, read: planktonic K. pneumoniae, 50 μM final drug concentration, cutoff for positive-scoring molecules 3-fold increase, read-out: AK-based Prestwick Library Screening Results, K. pneumoniae (increase in extracellular AK activity).
Where [9] appears, read: planktonic P. aeruginosa, 50 μM final drug concentration, cutoff for positive-scoring molecules 3-fold increase, read-out: AK-based Prestwick Library Screening Results, P. aeruginosa (increase in extracellular AK activity).
The mark [10] stands for this setting: planktonic E. cloacae, 50 μM final drug concentration, cutoff for positive-scoring molecules 3-fold increase, read-out: AK-based Prestwick Library Screening Results, E. cloacae (increase in extracellular AK activity).
[11] abbreviates: planktonic A. baumannii, 50 μM final drug concentration, cutoff for positive-scoring molecules 3-fold increase, read-out: AK-based Prestwick Library Screening Results, A. baumannii (increase in extracellular AK activity).
The mark [12] stands for this setting: planktonic E. faecium, 50 μM final drug concentration, cutoff for positive-scoring molecules 3-fold increase, read-out: AK-based Prestwick Library Screening Results, E. faecium (increase in extracellular AK activity).
[13] abbreviates: 50 μM final drug concentration, cutoff for positive-scoring molecules 3-fold increase, read-out: AK-based Prestwick Library Screening Results, E. coli (fold increase in extracellular AK activity).

As to `CS(=O)(=O)c1ccc([C@@H](O)[C@@H](CF)NC(=O)C(Cl)Cl)cc1` [Florfenicol], the fold induction at 50 µM in the assay with K. pneumoniae (setting [3]) was 0.3; with P. aeruginosa (setting [4]), 1.4; in the assay with E. cloacae (setting [5]), 1.4; in assay [1] (setting [6]) it was 1.2; in the assay with E. faecium (setting [7]) it was 1; with E. coli (50 μM final drug concentration, […], read-out: AK-based Prestwick Library Screening Results, E. coli (fold increase in extracellular AK activity)) it was 1.2.

On to `COc1cc(NC(C)CCCN)c2ncccc2c1` (centres unmarked) [Primaquine diphosphate], for which the fold induction at 50 µM turned out to be 1 with K. pneumoniae (50 μM final drug concentration, planktonic, cutoff for positive 3-fold increase, read-out: AK-based Prestwick Library Screening Results, K. pneumoniae (fold increase in extracellular AK activity)); 1 in the assay on P. aeruginosa (50 μM final drug concentration, planktonic, cutoff for positive 3-fold increase, read-out: AK-based Prestwick Library Screening Results, P. aeruginosa (fold increase in extracellular AK activity)); 1.4 in the assay with E. cloacae (50 μM final drug concentration, planktonic, cutoff for positive 3-fold increase, read-out: AK-based Prestwick Library Screening Results, E. cloacae (fold increase in extracellular AK activity)); 1.1 in assay [1] (50 μM final drug concentration, planktonic, cutoff for positive 3-fold increase, read-out: AK-based Prestwick Library Screening Results, A. baumannii (fold increase in extracellular AK activity)); 0.9 in the assay with E. faecium (50 μM final drug concentration, planktonic, cutoff for positive 3-fold increase, read-out: AK-based Prestwick Library Screening Results, E. faecium (fold increase in extracellular AK activity)); 2.1 in assay [2] (50 μM final drug concentration, planktonic, cutoff for positive 3-fold increase, read-out: AK-based Prestwick Library Screening Results, S. aureus (fold increase in extracellular AK activity)).

In the case of `CN[C@H](CC(C)C)C(=O)N[C@H]1C(=O)N[C@@H](CC(N)=O)C(=O)N[C@H]2C(=O)N[C@H]3C(=O)N[C@H](C(=O)N[C@H](C(=O)O)c4cc(O)cc(O)c4-c4cc3ccc4O)[C@H](O)c3ccc(c(Cl)c3)Oc3cc2cc(c3O[C@@H]2O[C@H](CO)[C@@H](O)[C@H](O)[C@H]2O[C@H]2C[C@](C)(N)[C@H](O)[C@H](C)O2)Oc2ccc(cc2Cl)[C@H]1O` [Vancomycin hydrochloride], the fold induction at 50 µM came out at 0.8 in the assay with K. pneumoniae (read-out: AK-based Prestwick Library Screening Results, K. pneumoniae (increase in extracellular AK activity)); 0.9 with P. aeruginosa (read-out: AK-based Prestwick Library Screening Results, P. aeruginosa (increase in extracellular AK activity)); 0.9 in the assay on E. cloacae (read-out: AK-based Prestwick Library Screening Results, E. cloacae (increase in extracellular AK activity)); 1.1 in assay [1] (read-out: AK-based Prestwick Library Screening Results, A. baumannii (increase in extracellular AK activity)); 1.5 with E. faecium (read-out: AK-based Prestwick Library Screening Results, E. faecium (increase in extracellular AK activity)); 1.2 in the assay on E. coli (read-out: AK-based Prestwick Library Screening Results, E. coli (increase in extracellular AK activity)).

As for `O=C(O)CCCC[C@@H]1SC[C@@H]2NC(=O)N[C@@H]21` [Biotin], the fold induction at 50 µM was 0.6 in the assay with K. pneumoniae (setting [8]); 0.7 with P. aeruginosa (setting [9]); 0.8 with E. cloacae (setting [10]); 0.8 in assay [1] (setting [11]); 0.9 in the assay with E. faecium (setting [12]); 1.4 in assay [2] (planktonic S. aureus, 50 μM final drug concentration, cutoff for positive-scoring molecules 3-fold increase, read-out: AK-based Prestwick Library Screening Results, S. aureus (increase in extracellular AK activity)).

Consider `[H]/N=C(\N/C(=N/[H])NCCCCCCNC(=N)NC(=N)Nc1ccc(Cl)cc1)Nc1ccc(Cl)cc1` [Chlorhexidine, chlorhexidine, reference compound], for which the fold induction at 50 µM worked out at 18.8 with K. pneumoniae (planktonic K. pneumoniae, 50 μM final drug concentration, 384-well, cutoff for positive-scoring molecules 3-fold increase, read-out: AK-based Prestwick Library Screening Results: K. pneumoniae (increase in extracellular AK activity)); 23.8 in the assay with P. aeruginosa (planktonic P. aeruginosa, 50 μM final drug concentration, 384-well, cutoff for positive-scoring molecules 3-fold increase, read-out: AK-based Prestwick Library Screening Results: P. aeruginosa (increase in extracellular AK activity)); 1.8 with E. cloacae (planktonic E. cloacae, 50 μM final drug concentration, 384-well, cutoff for positive-scoring molecules 3-fold increase, read-out: AK-based Prestwick Library Screening Results: E. cloacae (increase in extracellular AK activity)); 12.3 in assay [1] (planktonic A. baumannii, 50 μM final drug concentration, 384-well, cutoff for positive-scoring molecules 3-fold increase, read-out: AK-based Prestwick Library Screening Results: A. baumannii (increase in extracellular AK activity)); 4 in the assay on E. faecium (planktonic E. faecium, 50 μM final drug concentration, 384-well, cutoff for positive-scoring molecules 3-fold increase, read-out: AK-based Prestwick Library Screening Results: E. faecium (increase in extracellular AK activity)); 50.1 in the assay with E. coli (planktonic E. coli, 50 μM final drug concentration, 384-well, cutoff for positive-scoring molecules 3-fold increase, read-out: AK-based Prestwick Library Screening Results: E. coli (increase in extracellular AK activity)).

`Oc1ccc(C=Cc2cc(O)cc(O)c2)cc1` [Resveratrol]: in the assay on E. cloacae (setting [10]), the fold induction at 50 µM was determined as 0.1.

Take `CCCCC(CC)CNC(=N)NC(=N)NCCCCCCNC(=N)NC(=N)NCC(CC)CCCC` (centres unmarked) [Alexidine dihydrochloride]: the fold induction at 50 µM amounted to 23.4 in the assay with K. pneumoniae (setting [3]); 19.2 in the assay on P. aeruginosa (setting [4]); 1.5 in the assay with E. cloacae (setting [5]); 12.3 in assay [1] (setting [6]); 7.4 in the assay on E. faecium (setting [7]); 43.3 with E. coli (setting [13]).

As for `NNc1nncc2ccccc12` [Hydralazine hydrochloride], the fold induction at 50 µM with E. cloacae (50 μM final drug concentration, 384-well format, cutoff for positive-scoring molecules 3-fold increase, read-out: AK-based Prestwick Library Screening Results, E. cloacae (increase in extracellular AK activity)) is 0.3; in assay [1] (50 μM final drug concentration, 384-well format, cutoff for positive-scoring molecules 3-fold increase, read-out: AK-based Prestwick Library Screening Results, A. baumannii (increase in extracellular AK activity)) it was 0.1; in the assay with E. faecium (50 μM final drug concentration, 384-well format, cutoff for positive-scoring molecules 3-fold increase, read-out: AK-based Prestwick Library Screening Results, E. faecium (increase in extracellular AK activity)), 0.3; in assay [2] (50 μM final drug concentration, 384-well format, cutoff for positive-scoring molecules 3-fold increase, read-out: AK-based Prestwick Library Screening Results, S. aureus (increase in extracellular AK activity)) it was 0.2.

Regarding `O=C(NCCNCC(O)COc1ccc(O)cc1)N1CCOCC1` (centres unmarked) [Xamoterol hemifumarate], the fold induction at 50 µM in the assay on K. pneumoniae (read-out: AK-based Prestwick Library Screening Results, K. pneumoniae (fold increase in extracellular AK activity)) was found to be 0.8; in the assay with P. aeruginosa (read-out: AK-based Prestwick Library Screening Results, P. aeruginosa (fold increase in extracellular AK activity)) it was 1.2; in the assay with E. cloacae (read-out: AK-based Prestwick Library Screening Results, E. cloacae (fold increase in extracellular AK activity)) it was 1.8; in assay [1] (read-out: AK-based Prestwick Library Screening Results, A. baumannii (fold increase in extracellular AK activity)), 1; in the assay on E. faecium (read-out: AK-based Prestwick Library Screening Results, E. faecium (fold increase in extracellular AK activity)), 1; in assay [2] (read-out: AK-based Prestwick Library Screening Results, S. aureus (fold increase in extracellular AK activity)), 1.1.

For the compound `CCCCCCCCCCCCCCCC[N+](C)(C)CCN(Cc1ccc(OC)cc1)c1ncccn1` [Thonzonium bromide], the fold induction at 50 µM in the assay on K. pneumoniae (setting [3]) stood at 4.7; in the assay with P. aeruginosa (setting [4]), 1.5; in the assay on E. cloacae (setting [5]) it was 1.8; in assay [1] (setting [6]) it was 5.6; in the assay on E. faecium (setting [7]) it was 7.5; in the assay with E. coli (setting [13]), 3.2.

As for `O=c1cc(-c2ccc(O)cc2)oc2cc(O)cc(O)c12` [Apigenin], the fold induction at 50 µM in the assay on K. pneumoniae (setting [8]) came to 0.2; in the assay with P. aeruginosa (setting [9]), 0.2; with E. cloacae (setting [10]) it was 0.5; in assay [1] (setting [11]), 0.2; in the assay on E. faecium (setting [12]) it was 0.3; in the assay with E. coli (planktonic E. coli, 50 μM final drug concentration, cutoff for positive-scoring molecules 3-fold increase, read-out: AK-based Prestwick Library Screening Results, E. coli (increase in extracellular AK activity)), 0.2.

The record behind these values is US10004701B2, “Methods and compositions for treating infection” (UNIVERSITY OF ROCHESTER, priority 2012, dated 2018).
